Data on 13 compounds can be found in ChEMBL document CHEMBL1128637, “Enantioselective synthesis of inositols as intermediates for the preparation of deoxy-inositol phosphates from D-galactose” (Bioorg Med Chem Lett, 1995).

The target in one experiment is T1, Type 1 InsP3 receptor isoform S2 (Sus scrofa, UniProt P79248). Description: Binding affinity was determined by its ability to displace specifically bound […] from purified porcine cerebellum membrane. The class given is tissue-based.
T1 sequence (P79248 whole entry, canonical isoform): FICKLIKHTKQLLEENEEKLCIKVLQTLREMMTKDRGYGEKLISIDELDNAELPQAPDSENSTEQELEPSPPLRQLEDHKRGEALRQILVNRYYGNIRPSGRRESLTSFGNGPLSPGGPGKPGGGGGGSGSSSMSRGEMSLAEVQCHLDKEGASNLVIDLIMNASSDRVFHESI
The IC50 is the point on the concentration scale where inhibition reaches its midpoint. A lower IC50 goes with inhibition by little substance. `COC1OC(CBr)C2OC3(CCCCC3)OC2C1O` (stereo not drawn): the IC50 result is “Not Active”.
Same read-out and setting: as for `CO[C@@H]1O[C@H](CO)[C@H](O)[C@H](O)[C@H]1O`, the entry is “Not Active”.
Take `O=P(OCc1ccccc1)(OCc1ccccc1)OC1CC(OP(=O)(OCc2ccccc2)OCc2ccccc2)C2OC3(CCCCC3)OC2C1OCc1ccccc1` (stereo not drawn): the concentration for half-maximal inhibition (IC50) entry was “Not Active”.
`CO[C@@H]1O[C@@H](CO)[C@@H]2OC3(CCCCC3)O[C@@H]2[C@@H]1O`: the IC50 result is given as “Not Active”.
With `OC1CC(O)C2OC3(CCCCC3)OC2C1O` (stereo not drawn), the IC50 entry is given as “Not Active”.
On to `OC1CC(O)C2OC3(CCCCC3)OC2C1OCc1ccccc1` (stereo not drawn), for which the IC50 entry is given as “Not Active”.
For the compound `O=P(OCc1ccccc1)(OCc1ccccc1)OC1CC(OP(=O)(OCc2ccccc2)OCc2ccccc2)C(OP(=O)(OCc2ccccc2)OCc2ccccc2)C2OC3(CCCCC3)OC12` (stereo not drawn), the IC50 result is reported as “Not Active”.
As to `C=C1OC(OC)C(OCc2ccccc2)C2OC3(CCCCC3)OC12` (stereo not drawn), the IC50 result is listed as “Not Active”.
On to `O[C@H]1[C@@H](O)[C@H](O)C[C@@H](O)[C@H]1O`, for which the IC50 result is “Not Active”.
Still for that read-out and setting: as for `COC1OC(CBr)C2OC3(CCCCC3)OC2C1OCc1ccccc1` (stereo not drawn), the entry is “Not Active”; as for `O=C1CC(O)C(OCc2ccccc2)C2OC3(CCCCC3)OC12` (stereo not drawn), “Not Active”.

For another experiment, the target named is T1, Type 1 InsP3 receptor isoform S2. Kind of experiment: Binding affinity of compound was determined by its ability to displace specifically bound […] from purified porcine cerebellum membrane. The class given is tissue-based.
For `O=P(O)(O)O[C@@H]1[C@H](O)[C@H](O)[C@@H](OP(=O)(O)O)[C@H](OP(=O)(O)O)[C@H]1O` [INS(1,4,5)P3], the half-inhibitory concentration (IC50) was found to be 20 nM.
`O=P(O)(O)OC1CC(OP(=O)(O)O)C(OP(=O)(O)O)C(O)C1O` (stereo not drawn) registered an IC50 of 1500 nM. Compared with the last compound, the IC50 is about 75-fold higher.
